Bounds are passed on as bounds.

Experiment [1] concerns the target T1, IRE1a (Homo sapiens, UniProt O75460).
T1 construct: purchased SignalChem
Nature of the experiment: In vitro FRET assay (IRE1a cleavage of XBP1 RNA probe). In kind it is biochemical. The settings on record: 2 nM SignalChem IRE1a, tested as Formic Acid Salt (37: HCl Salt). The method in brief:
Human

The subject of experiment [2] is IRE1a. Nature of the experiment: IRE1a Endoribonuclease Nanoluciferase Assay (XBP1 luciferase reporter in 293T cells). In kind it is cell-based, human. The settings on record: ER stressor, tested as Formic Acid Salt (37: HCl Salt). The method in brief: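 293T cells transiently transfected with a PGK-Luc2-P2A-XBP1u-Nanoluciferase-Pest reporter, replated after 6 h, then treated next day with ER stressors ± inhibitors. After lysis, firefly luminescence then nanoluciferase luminescence read sequentially (1000 ms integration each).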
For orientation: In a reporter assay the amount or activity of a reporter protein is the signal.

T1 sequence (O75460 19-977): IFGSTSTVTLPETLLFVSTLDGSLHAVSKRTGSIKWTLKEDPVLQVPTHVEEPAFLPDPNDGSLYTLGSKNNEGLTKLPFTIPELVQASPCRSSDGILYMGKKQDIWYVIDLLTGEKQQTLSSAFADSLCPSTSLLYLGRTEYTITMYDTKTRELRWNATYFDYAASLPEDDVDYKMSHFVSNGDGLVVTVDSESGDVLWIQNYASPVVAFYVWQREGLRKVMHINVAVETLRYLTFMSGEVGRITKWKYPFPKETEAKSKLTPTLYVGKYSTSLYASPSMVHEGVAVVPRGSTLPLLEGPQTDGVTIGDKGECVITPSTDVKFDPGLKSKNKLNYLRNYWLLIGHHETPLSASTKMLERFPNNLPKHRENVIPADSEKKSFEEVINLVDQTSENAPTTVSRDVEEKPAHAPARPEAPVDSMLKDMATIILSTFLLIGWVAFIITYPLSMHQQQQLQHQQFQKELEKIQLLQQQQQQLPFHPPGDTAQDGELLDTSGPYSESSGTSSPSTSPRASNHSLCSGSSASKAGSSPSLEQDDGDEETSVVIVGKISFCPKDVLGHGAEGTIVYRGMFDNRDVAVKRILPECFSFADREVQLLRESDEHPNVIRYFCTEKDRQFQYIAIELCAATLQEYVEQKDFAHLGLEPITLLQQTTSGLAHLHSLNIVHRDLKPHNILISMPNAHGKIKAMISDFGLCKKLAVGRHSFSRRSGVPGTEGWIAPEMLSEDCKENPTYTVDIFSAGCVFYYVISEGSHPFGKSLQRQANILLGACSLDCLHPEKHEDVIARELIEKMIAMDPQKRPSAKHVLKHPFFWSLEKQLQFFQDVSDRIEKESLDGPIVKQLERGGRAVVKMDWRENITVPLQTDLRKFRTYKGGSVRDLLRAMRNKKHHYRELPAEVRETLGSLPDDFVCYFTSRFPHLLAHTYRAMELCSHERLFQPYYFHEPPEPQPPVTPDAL

On to `Cc1cc2nc(N[C@H]3CC[C@H](N)CC3)ncc2cc1-c1ccc(NS(=O)(=O)c2ccccc2Cl)c(F)c1` [Compound 90, N-(4-(2-(((1r,4r)-4-aminocyclohexyl)amino)-7-methylquinazolin-6-yl)-2-fluorophenyl)-2-chlorobenzene-sulfonamide], for which the IC50 – broadly, the midpoint of a concentration-inhibition curve – on IRE1a [1] is no more than 5 nM. Also, the concentration giving a half-maximal response (EC50) (commonly the concentration at which the effect is half-maximal) in the experiment on IRE1a [2] (Homo sapiens, HEK-293T) was 5 to 50 nM.

With `N[C@H]1CC[C@H](Nc2ncc3cc(-c4ncc(NS(=O)(=O)c5ccccc5Cl)cc4F)ccc3n2)CC1` [Compound 51, N-(6-(2-(((1r,4r)-4-aminocyclohexyl)amino)quinazolin-6-yl)-5-fluoropyridin-3-yl)-2-chlorobenzene-sulfonamide], the IC50 at IRE1a [1] is no more than 5 nM. The EC50 in the experiment with IRE1a [2] (Homo sapiens, HEK-293T) lay within 50 to 100 nM.

On to `CCc1nc(NS(=O)(=O)c2ccccc2Cl)ccc1-c1cc(CC)c2nc(N[C@H]3CC[C@H](N(C)C)CC3)ncc2c1` [Compound 117, 2-chloro-N-(5-(2-(((1r,4r)-4-(dimethylamino)cyclohexyl)amino)-8-ethylquinazolin-6-yl)-6-ethylpyridin-2-yl)benzenesulfonamide], for which the IC50 on IRE1a [1] is no more than 5 nM. Also, the EC50 with IRE1a [2] (Homo sapiens, HEK-293T) is no more than 5 nM.

In the case of `CCc1cc(-c2cc(F)c(NS(=O)(=O)c3ccccc3Cl)nc2OC)cc2cnc(N[C@H]3CC[C@H](NC)CC3)nc12` [Compound 127, 2-chloro-N-(5-(8-ethyl-2-(((1r,4r)-4-(methylamino)cyclohexyl)amino)quinazolin-6-yl)-3-fluoro-6-methoxypyridin-2-yl)benzenesulfonamide], the IC50 at IRE1a [1] is no more than 5 nM. In the experiment on IRE1a [2] (Homo sapiens, HEK-293T), the EC50 was no more than 5 nM.

On to `CCc1cc(-c2ccc(NS(=O)(=O)c3ccccc3Cl)nc2OC)cc2cnc(N[C@H]3CC[C@H](N(C)C)CC3)nc12` [Compound 99, 2-chloro-N-(5-(2-(((1r,4r)-4-(dimethylamino)cyclohexyl)amino)-8-ethylquinazolin-6-yl)-6-methoxypyridin-2-yl)benzenesulfonamide], for which, at IRE1a [1], the IC50 is no more than 5 nM. Also, the EC50 with IRE1a [2] (Homo sapiens, HEK-293T) was no more than 5 nM.

On to `N[C@H]1CCC[C@@H](Nc2ncc3cc(-c4ccc(NS(=O)(=O)c5ccccc5Cl)c(F)c4)ccc3n2)C1` [Compound 75, N-(4-(2-(((1R,3S)-3-aminocyclohexyl)amino)quinazolin-6-yl)-2-fluorophenyl)-2-chlorobenzene-sulfonamide], for which the IC50 at IRE1a [1] was no more than 5 nM. In addition, in the experiment on IRE1a [2] (Homo sapiens, HEK-293T), the EC50 is 100 to 10000 nM.

In the case of `CCc1cc(-c2ccc(NS(=O)(=O)c3ccccc3Cl)nc2C)cc2cnc(N[C@H]3CC[C@H](N(C)CC)CC3)nc12` [Compound 125, 2-chloro-N-(5-(8-ethyl-2-(((1r,4r)-4-(ethyl(methyl)amino)cyclohexyl)amino)quinazolin-6-yl)-6-methylpyridin-2-yl)benzenesulfonamide], the IC50 at IRE1a [1] was no more than 5 nM. The EC50 with IRE1a [2] (Homo sapiens, HEK-293T) was no more than 5 nM.

As for `CCc1cc(-c2ccc(NS(=O)(=O)c3ccccc3Cl)nc2C)cc2cnc(NC3CCC(N(C)C)C[C@@H]3F)nc12` (stereo in doubt) [Compound 151, 2-chloro-N-(5-(2-(((1R,2S,4R)-4-(dimethylamino)-2-fluorocyclohexyl)amino)-8-ethylquinazolin-6-yl)-6-methylpyridin-2-yl)benzenesulfonamide], the IC50 on IRE1a [1] was no more than 5 nM. The EC50 in the experiment on IRE1a [2] (Homo sapiens, HEK-293T) was no more than 5 nM.

For `CCc1c(F)c(-c2cc(F)c(NS(=O)(=O)c3ccccc3Cl)nc2C)cc2cnc(N[C@H]3CC[C@H](N(C)C)CC3)nc12` [Compound 162, 2-chloro-N-(5-(2-(((1r,4r)-4-(dimethylamino)cyclohexyl)amino)-8-ethyl-7-fluoroquinazolin-6-yl)-3-fluoro-6-methylpyridin-2-yl)benzenesulfonamide], the IC50 at IRE1a [1] was no more than 5 nM. Further, the EC50 with IRE1a [2] (Homo sapiens, HEK-293T) is no more than 5 nM.

For `NC12CCC(Nc3ncc4cc(-c5ccc(NS(=O)(=O)c6ccccc6Cl)c(F)c5)ccc4n3)(CC1)CC2` [Compound 81, N-(4-(2-((4-aminobicyclo[2.2.2]octan-1-yl)amino)quinazolin-6-yl)-2 fluorophenyl)-2-chlorobenzene-sulfonamide], the IC50 at IRE1a [1] is no more than 5 nM. The EC50 in the experiment with IRE1a [2] (Homo sapiens, HEK-293T) was no more than 5 nM.

With `Cc1nc(NS(=O)(=O)c2ccccc2Cl)c(F)cc1-c1ccc2nc(N[C@H]3CC[C@H](N(C)C)CC3)ncc2c1` [Compound 153, 2-chloro-N-(5-(2-(((1r,4r)-4-(dimethylamino)cyclohexyl)amino)quinazolin-6-yl)-3-fluoro-6-methylpyridin-2-yl)benzenesulfonamide], at IRE1a [1], the IC50 is no more than 5 nM. Also, the EC50 in the experiment with IRE1a [2] (Homo sapiens, HEK-293T) is 5 to 50 nM.

Consider `CCc1cc(-c2ccc(NS(=O)(=O)c3ccccc3Cl)nc2C)cc2cnc(N[C@H]3CC[C@H](NC)CC3)nc12` [Compound 122, 2-chloro-N-(5-(8-ethyl-2-(((1r,4r)-4-(methylamino)cyclohexyl)amino)quinazolin-6-yl)-6-methylpyridin-2-yl)benzenesulfonamide], for which the IC50 on IRE1a [1] was no more than 5 nM. Moreover, the EC50 in the experiment with IRE1a [2] (Homo sapiens, HEK-293T) is no more than 5 nM.

With `Cc1nc(NS(=O)(=O)c2ccccc2Cl)ncc1-c1ccc2nc(N[C@H]3CC[C@H](N)CC3)ncc2c1` [Compound 68, N-(5-(2-(((1r,4r)-4-aminocyclohexyl)amino)quinazolin-6-yl)-4-methylpyrimidin-2-yl)-2-chlorobenzene-sulfonamide], the IC50 on IRE1a [1] was no more than 5 nM. Further, in the experiment on IRE1a [2] (Homo sapiens, HEK-293T), the EC50 was in the range of 50 to 100 nM.

Turning to `CCc1cc(-c2nnc(NS(=O)(=O)c3ccccc3Cl)cc2OC)cc2cnc(N[C@H]3CC[C@H](N(C)C)CC3)nc12` [Compound 159, 2-chloro-N-(6-(2-(((1r,4r)-4-(dimethylamino)cyclohexyl)amino)-8-ethylquinazolin-6-yl)-5-methoxypyridazin-3-yl)benzenesulfonamide], the IC50 at IRE1a [1] was no more than 5 nM. Further, the EC50 in the experiment with IRE1a [2] (Homo sapiens, HEK-293T) lay within 5 to 50 nM.

Regarding `CCc1cc(-c2ccc(NS(=O)(=O)c3ccccc3Cl)c(F)c2)cc2cnc(N[C@H]3CC4C[C@H](N)CC4C3)nc12` (some centres unmarked) [Compound 83], the IC50 at IRE1a [1] fell in the range of 5 to 50 nM. Also, the EC50 with IRE1a [2] was in the range of 50 to 100 nM.

As to `CCc1cc(-c2ccc(NS(=O)(=O)c3ccccc3Cl)c(F)c2)cc2cnc(N[C@H]3CC[C@H](NC)CC3)nc12` [Compound 60, 2-chloro-N-(4-(8-ethyl-2-(((1r,4r)-4-(methylamino)cyclohexyl)amino)quinazolin-6-yl)-2-fluorophenyl) benzene sulfonamide], the IC50 at IRE1a [1] is no more than 5 nM. The EC50 in the experiment with IRE1a [2] (Homo sapiens, HEK-293T) is no more than 5 nM.

`CCc1c(F)c(-c2ccc(NS(=O)(=O)c3ccccc3Cl)nc2C)cc2cnc(N[C@H]3CC[C@H](N(C)C)CC3)nc12` [Compound 161, 2-chloro-N-(5-(2-(((1r,4r)-4-(dimethylamino)cyclohexyl)amino)-8-ethyl-7-fluoroquinazolin-6-yl)-6-methylpyridin-2-yl)benzenesulfonamide]: the IC50 at IRE1a [1] is no more than 5 nM. In the experiment on IRE1a [2] (Homo sapiens, HEK-293T), the EC50 is no more than 5 nM.

With `CCc1cc(-c2ccc(NS(=O)(=O)c3ccccc3Cl)c(F)c2)cc2cnc(N[C@@H]3CC[C@@H](N)[C@H](C)C3)nc12` [Compound 74, N-(4-(2-(((1R,3R,4R)-4-amino-3-methylcyclohexyl)amino)-8-ethylquinazolin-6-yl)-2-fluorophenyl)-2-chlorobenzene-sulfonamide], the IC50 on IRE1a [1] was no more than 5 nM. For the same compound, the EC50 in the experiment with IRE1a [2] (Homo sapiens, HEK-293T) was no more than 5 nM.

As for `CCc1cc(-c2ncc(NS(=O)(=O)c3ccccc3Cl)nc2OC)cc2cnc(N[C@H]3CC[C@H](N)CC3)nc12` [Compound 98, N-(5-(2-(((1r,4r)-4-aminocyclohexyl)amino)-8-ethylquinazolin-6-yl)-6-methoxypyrazin-2-yl)-2-chlorobenzenesulfonamide], on IRE1a [1], the IC50 was no more than 5 nM. Also, the EC50 in the experiment on IRE1a [2] (Homo sapiens, HEK-293T) was no more than 5 nM.

`CCc1cc(-c2ccc(NS(=O)(=O)c3ccccc3Cl)nc2C)cc2cnc(N[C@H]3CC[C@H](N(C)CCOC)CC3)nc12` [Compound 132, 2-chloro-N-(5-(8-ethyl-2-(((1r,4r)-4-((2-methoxyethyl)(methyl)amino)cyclohexyl)amino)quinazolin-6-yl)-6-methylpyridin-2-yl)benzenesulfonamide]: the IC50 at IRE1a [1] is no more than 5 nM. The EC50 in the experiment on IRE1a [2] (Homo sapiens, HEK-293T) is no more than 5 nM.

Regarding `CCc1cc(-c2ccc(NS(=O)(=O)c3ccccc3Cl)nc2OC)cc2cnc(N[C@H]3CC[C@H](NC)CC3)nc12` [Compound 116, 2-chloro-N-(5-(8-ethyl-2-(((1r,4r)-4-(methylamino)cyclohexyl)amino)quinazolin-6-yl)-6-methoxypyridin-2-yl)benzenesulfonamide], the 50% inhibitory concentration (IC50) at IRE1a [1] was no more than 5 nM. Further, the EC50 in the experiment with IRE1a [2] (Homo sapiens, HEK-293T) is no more than 5 nM.

As to `CCc1cc(-c2ncc(NS(=O)(=O)c3ccccc3Cl)nc2OC)cc2cnc(N[C@H]3CC[C@H](N(C)C)CC3)nc12` [Compound 157, 2-chloro-N-(5-(2-(((1r,4r)-4-(dimethylamino)cyclohexyl)amino)-8-ethylquinazolin-6-yl)-6-methoxypyrazin-2-yl)benzenesulfonamide], the IC50 on IRE1a [1] is no more than 5 nM. Moreover, the EC50 in the experiment with IRE1a [2] (Homo sapiens, HEK-293T) was no more than 5 nM.

Consider `N[C@H]1CC[C@H](Nc2ncc3cc(-c4cnc(NS(=O)(=O)c5ccccc5Cl)c(F)c4)ccc3n2)CC1` [Compound 54, N-(5-(2-(((1r,4r)-4-aminocyclohexyl)amino)quinazolin-6-yl)-3-fluoropyridin-2-yl)-2-chlorobenzene-sulfonamide], for which, at IRE1a [1], the IC50 is no more than 5 nM. The EC50 in the experiment on IRE1a [2] (Homo sapiens, HEK-293T) lay in the range of 5 to 50 nM.

Take `CCCc1cc(-c2cc(NS(=O)(=O)c3ccccc3Cl)nn2C)cc2cnc(N[C@H]3CC[C@H](N)CC3)nc12` [Compound 47, N-(5-(2-(((1r,4r)-4-aminocyclohexyl)amino)-8-propylquinazolin-6-yl)-1-methyl-1H-pyrazol-3-yl)-2-chlorobenzene-sulfonamide]: the IC50 on IRE1a [1] is no more than 5 nM. The EC50 in the experiment with IRE1a [2] (Homo sapiens, HEK-293T) was in the range of 5 to 50 nM.

Consider `CCc1cc(-c2ccc(NS(=O)(=O)c3ccccc3Cl)c(F)c2)cc2cnc(N[C@@H]3CC[C@H](N)C3)nc12` [Compound 79, N-(4-(2-(((1R,3S)-3-aminocyclopentyl)amino)-8-ethylquinazolin-6-yl)-2-fluorophenyl)-2-chlorobenzene-sulfonamide], for which the IC50 at IRE1a [1] was no more than 5 nM. Moreover, the EC50 in the experiment with IRE1a [2] (Homo sapiens, HEK-293T) is 5 to 50 nM.

Values taken from patent US12071424B2, “IRE1 small molecule inhibitors” (Cornell University, priority 2017, dated 2024).
